One assay deals with A375Pβ6puro. The assay is classed as cell-based, human.
Another assay deals with A375Ppuro. It counts as cell-based, human.
The target of assay [1] is T1, αvβ6 (Homo sapiens, UniProt P06756+P18564).
T1 construct: endogenous in cells; host or cells: VB6 human oral squamous cell carcinoma
The assay can be described thus: Cell adhesion assay: αvβ6-dependent adhesion of VB6 cells to LAP. It counts as cell-based.

Assay [2] addresses αvβ6 (UniProt P18564+P43406). The experiment in a line: cell-based. The arrangement: species or system mouse.
The target in assay [3] is T2, rsαvβ6 (Homo sapiens, UniProt P06756+P18564). The experiment in a line: biochemical. It counts as binding.
T2 sequence (P06756 31-992 limits assumed): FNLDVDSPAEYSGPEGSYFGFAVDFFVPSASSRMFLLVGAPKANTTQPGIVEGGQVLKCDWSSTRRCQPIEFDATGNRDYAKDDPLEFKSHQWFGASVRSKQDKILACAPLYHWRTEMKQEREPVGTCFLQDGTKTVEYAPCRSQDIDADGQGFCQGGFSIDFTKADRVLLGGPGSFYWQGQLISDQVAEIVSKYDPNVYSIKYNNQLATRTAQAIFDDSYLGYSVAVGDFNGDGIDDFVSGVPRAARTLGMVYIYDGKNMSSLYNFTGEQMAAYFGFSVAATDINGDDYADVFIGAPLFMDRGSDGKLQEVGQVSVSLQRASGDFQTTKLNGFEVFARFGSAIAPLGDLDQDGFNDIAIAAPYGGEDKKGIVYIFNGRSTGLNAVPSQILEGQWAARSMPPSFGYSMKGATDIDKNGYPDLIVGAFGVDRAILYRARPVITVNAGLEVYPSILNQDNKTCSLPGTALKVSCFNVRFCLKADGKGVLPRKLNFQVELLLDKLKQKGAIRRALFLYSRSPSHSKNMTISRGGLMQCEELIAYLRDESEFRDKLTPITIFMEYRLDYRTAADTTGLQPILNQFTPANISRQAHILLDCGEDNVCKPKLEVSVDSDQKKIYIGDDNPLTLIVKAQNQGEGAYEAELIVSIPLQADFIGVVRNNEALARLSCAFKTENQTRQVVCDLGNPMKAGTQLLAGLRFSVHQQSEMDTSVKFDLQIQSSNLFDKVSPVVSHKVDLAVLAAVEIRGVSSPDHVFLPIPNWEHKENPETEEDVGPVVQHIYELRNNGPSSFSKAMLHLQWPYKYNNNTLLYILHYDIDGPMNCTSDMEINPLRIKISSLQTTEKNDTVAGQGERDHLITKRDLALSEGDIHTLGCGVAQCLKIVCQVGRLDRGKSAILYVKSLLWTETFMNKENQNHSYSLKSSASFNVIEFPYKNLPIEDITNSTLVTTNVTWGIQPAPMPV
T2 sequence (P18564 22-709 limits assumed): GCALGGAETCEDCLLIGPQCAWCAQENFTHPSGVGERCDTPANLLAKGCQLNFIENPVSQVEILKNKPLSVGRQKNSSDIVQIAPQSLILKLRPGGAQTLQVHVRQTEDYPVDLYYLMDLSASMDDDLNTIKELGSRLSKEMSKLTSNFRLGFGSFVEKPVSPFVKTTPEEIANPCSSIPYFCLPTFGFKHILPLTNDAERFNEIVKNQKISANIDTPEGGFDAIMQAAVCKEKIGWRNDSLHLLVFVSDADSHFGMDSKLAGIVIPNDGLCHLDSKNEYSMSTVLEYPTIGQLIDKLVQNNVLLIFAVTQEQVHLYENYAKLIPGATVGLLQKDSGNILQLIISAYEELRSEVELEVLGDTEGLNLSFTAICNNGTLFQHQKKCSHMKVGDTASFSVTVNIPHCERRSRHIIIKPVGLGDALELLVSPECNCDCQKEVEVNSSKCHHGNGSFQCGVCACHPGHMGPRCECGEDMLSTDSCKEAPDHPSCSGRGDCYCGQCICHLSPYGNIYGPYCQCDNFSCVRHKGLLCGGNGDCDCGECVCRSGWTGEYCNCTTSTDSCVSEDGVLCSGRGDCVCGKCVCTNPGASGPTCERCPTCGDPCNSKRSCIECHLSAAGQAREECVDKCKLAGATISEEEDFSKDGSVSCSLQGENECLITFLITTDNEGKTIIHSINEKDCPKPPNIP
Assay [4] addresses T2, rsαvβ6. The assay can be described thus: biochemical. The assay is classed as binding. This is another data set of the same source.

Where a SMILES comes first, the peptide text is derived from it. Where no end group is shown, it is not given here. The star is where a group is joined. Biotin = O=C1N[C@H]2[C@H](CS[C@H]2CCCCC(=O)*)N1; Ahx = NCCCCCC(=O)O

T1 sequence (P06756 31-1048): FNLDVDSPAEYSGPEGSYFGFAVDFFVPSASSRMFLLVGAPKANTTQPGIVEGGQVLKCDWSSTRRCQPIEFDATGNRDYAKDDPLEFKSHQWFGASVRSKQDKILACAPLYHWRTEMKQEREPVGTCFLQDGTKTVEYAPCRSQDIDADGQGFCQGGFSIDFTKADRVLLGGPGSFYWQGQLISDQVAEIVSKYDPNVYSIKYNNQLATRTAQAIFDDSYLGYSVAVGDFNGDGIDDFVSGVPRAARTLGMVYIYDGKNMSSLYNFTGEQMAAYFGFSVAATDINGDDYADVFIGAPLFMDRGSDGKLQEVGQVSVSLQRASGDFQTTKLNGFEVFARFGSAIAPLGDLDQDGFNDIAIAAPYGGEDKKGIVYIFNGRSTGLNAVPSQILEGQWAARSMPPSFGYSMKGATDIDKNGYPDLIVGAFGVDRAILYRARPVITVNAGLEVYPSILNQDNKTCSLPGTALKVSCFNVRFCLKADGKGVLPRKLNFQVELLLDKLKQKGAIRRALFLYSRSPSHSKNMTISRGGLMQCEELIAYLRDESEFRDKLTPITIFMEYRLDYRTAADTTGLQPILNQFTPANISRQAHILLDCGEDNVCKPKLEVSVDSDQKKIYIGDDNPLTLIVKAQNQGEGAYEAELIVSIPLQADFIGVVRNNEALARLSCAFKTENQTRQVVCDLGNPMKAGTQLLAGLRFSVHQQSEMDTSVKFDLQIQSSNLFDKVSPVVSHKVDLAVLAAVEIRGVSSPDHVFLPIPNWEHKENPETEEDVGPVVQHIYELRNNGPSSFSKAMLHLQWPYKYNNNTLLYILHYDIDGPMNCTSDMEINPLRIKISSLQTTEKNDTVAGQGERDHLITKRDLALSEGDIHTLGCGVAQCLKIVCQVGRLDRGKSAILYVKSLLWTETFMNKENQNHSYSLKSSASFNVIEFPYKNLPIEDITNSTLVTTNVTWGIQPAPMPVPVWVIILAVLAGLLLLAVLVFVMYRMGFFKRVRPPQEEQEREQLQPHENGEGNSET
T1 sequence (P18564 22-788): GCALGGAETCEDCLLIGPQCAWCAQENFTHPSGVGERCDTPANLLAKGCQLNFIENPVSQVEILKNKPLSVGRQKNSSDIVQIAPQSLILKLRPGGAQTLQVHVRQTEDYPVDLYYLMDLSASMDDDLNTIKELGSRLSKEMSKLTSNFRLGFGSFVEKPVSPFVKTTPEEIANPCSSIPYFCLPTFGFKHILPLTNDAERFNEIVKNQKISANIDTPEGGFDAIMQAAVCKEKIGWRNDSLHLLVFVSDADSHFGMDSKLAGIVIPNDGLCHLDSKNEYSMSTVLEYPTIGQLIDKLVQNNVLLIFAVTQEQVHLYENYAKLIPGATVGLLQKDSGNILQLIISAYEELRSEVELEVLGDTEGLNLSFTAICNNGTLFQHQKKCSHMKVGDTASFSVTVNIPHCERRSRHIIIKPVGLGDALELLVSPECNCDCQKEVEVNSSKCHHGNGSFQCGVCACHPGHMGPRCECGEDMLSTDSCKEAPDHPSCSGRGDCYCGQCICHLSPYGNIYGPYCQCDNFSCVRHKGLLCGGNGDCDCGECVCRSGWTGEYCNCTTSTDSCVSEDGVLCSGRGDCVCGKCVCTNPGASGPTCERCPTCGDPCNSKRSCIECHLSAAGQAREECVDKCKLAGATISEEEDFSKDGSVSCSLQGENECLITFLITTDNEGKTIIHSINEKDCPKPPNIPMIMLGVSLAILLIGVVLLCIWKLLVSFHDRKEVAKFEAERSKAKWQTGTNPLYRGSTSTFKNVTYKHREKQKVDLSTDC

Regarding `CC(C)C[C@H](NC(=O)[C@H](CC(=O)O)NC(=O)CNC(=O)[C@H](CCCNC(=N)N)NC(=O)[C@H](CC(C)C)NC(=O)[C@H](CC(N)=O)NC(=O)[C@@H]1CCCN1C(=O)[C@@H](NC(=O)[C@H](C)NC(=O)[C@@H](N)CC(N)=O)C(C)C)C(=O)N[C@@H](CCC(N)=O)C(=O)N[C@H](C(=O)N[C@@H](CC(C)C)C(=O)N[C@@H](C)C(=O)N[C@@H](CCC(N)=O)C(=O)N[C@@H](CCCCN)C(=O)N[C@H](C(=O)N[C@@H](C)C(=O)N[C@@H](CCCNC(=N)N)C(=O)N[C@H](C(=O)O)[C@@H](C)O)C(C)C)C(C)C` [A20FMDV2], in the assay with A375Pβ6puro, the “binding to A375Pβ6puro” value is “observed at 10 μM, 1μM, 0.1 μM, 0.01 μM and 0.00 μM”; the “differential binding A375Pβ6puro versus A375Ppuro” value is given as “four orders of magnitude”. Further, the “binding to A375Ppuro” value in the assay on A375Ppuro was “only at 10 μM”.

With `CC(C)C[C@H](NC(=O)[C@H](CC(=O)O)NC(=O)CNC(=O)[C@H](CCCNC(=N)N)NC(=O)[C@H](CC(C)C)NC(=O)[C@H](CC(N)=O)NC(=O)[C@@H]1CCCN1C(=O)[C@@H](NC(=O)[C@H](C)NC(=O)[C@@H](N)CC(N)=O)C(C)C)C(=O)N[C@@H](CCC(N)=O)C(=O)N[C@@H](C(=O)N[C@@H](CC(C)C)C(=O)N[C@@H](C)C(=O)N[C@@H](CCC(N)=O)C(=O)N[C@@H](CCCCN)C(=O)N[C@@H](C(=O)N[C@@H](C)C(=O)N[C@@H](CCCNC(=N)N)C(=O)N[C@H](C(=O)O)[C@@H](C)O)C(C)C)C(C)C` [DV1217], in the assay with A375Pβ6puro, the “binding to A375Pβ6puro” value is “bound to A375Pβ6 at 10 μM and at 1 μM”; the “loss of anti-αvβ6 potency versus A20FMDV2” value was 1000 fold. For the same molecule, the “binding to A375Ppuro” value in the assay on A375Ppuro is “did not bind noticeably”.

Broadly, the IC50 is the concentration at which inhibition is half-maximal. Higher therefore signals a need for much substance. For `CC(C)C[C@H](NC(=O)[C@H](Cc1cnc[nH]1)NC(=O)[C@H](CCCNC(=N)N)NC(=O)[C@H](C)NC(=O)[C@H](Cc1cnc[nH]1)NC(=O)[C@@H](NC(=O)[C@@H](NC(=O)[C@@H](NC(=O)[C@H](CC(C)C)NC(=O)[C@H](Cc1cnc[nH]1)NC(=O)[C@H](C)NC(=O)[C@H](CC(C)C)NC(=O)[C@H](CC(=O)O)NC(=O)CNC(=O)[C@H](CCCNC(=N)N)NC(=O)[C@H](C)NC(=O)[C@H](CO)NC(=O)[C@H](C)NC(=O)[C@@H](NC(=O)[C@@H](N)Cc1ccc(O)cc1)[C@@H](C)O)[C@@H](C)O)[C@@H](C)O)[C@@H](C)O)C(=O)O` [A20FMDV1], the half-maximal inhibitory concentration (IC50) against αvβ6 [1] amounted to 38.2 ± 31.1 µM. Moreover, the “binding to A375Pβ6puro” value with A375Pβ6puro is listed as “binding to A375Pβ6puro at 1 μM”. For the same molecule, the “binding to A375Ppuro” value in the assay on A375Ppuro was “did not bind to A375Ppuro”.

Turning to `CC(C)C[C@H](NC(=O)[C@H](CC(=O)O)NC(=O)CNC(=O)[C@H](CCCNC(=N)N)NC(=O)[C@H](CC(C)C)NC(=O)[C@H](CC(N)=O)NC(=O)[C@@H]1CCCN1C(=O)[C@@H](N)C(C)C)C(=O)N[C@@H](CCC(N)=O)C(=O)N[C@H](C(=O)N[C@@H](CC(C)C)C(=O)N[C@@H](C)C(=O)O)C(C)C` [DD19], the IC50 amounted to 190 µM at αvβ6 [2] and 0.085 µM against rsαvβ6 [3]. In addition, the “VB6 adhesion to LAP in the presence of peptide” value on αvβ6 [1] was “the same as adhesion in the absence of peptide”.

Consider `CC(C)C[C@H](NC(=O)[C@H](CC(=O)O)NC(=O)CNC(=O)[C@H](CCCNC(=N)N)NC(=O)[C@H](CC(C)C)NC(=O)[C@H](CC(N)=O)NC(=O)[C@@H]1CCCN1C(=O)[C@@H](NC(=O)[C@H](C)NC(=O)[C@H](CC(N)=O)NC(=O)CCCCCNC(=O)CCCC[C@@H]1SC[C@@H]2NC(=O)N[C@@H]21)C(C)C)C(=O)N[C@@H](CCC(N)=O)C(=O)N[C@H](C(=O)N[C@@H](CC(C)C)C(=O)N[C@@H](C)C(=O)N[C@@H](CCC(N)=O)C(=O)N[C@@H](CCCCN)C(=O)N[C@H](C(=O)N[C@@H](C)C(=O)N[C@@H](CCCNC(=N)N)C(=O)N[C@H](C(=O)O)[C@@H](C)O)C(C)C)C(C)C` [B-A20FMDV2], for which, in the assay with A375Pβ6puro, the “binding to A375Pβ6 in the presence of 63G9” value (from here on “binding to A375Pβ6 … of 63G9”) was “completely abolished”, the “binding to A375Pβ6 in the presence of control IgG” value (from here on “binding … of control IgG”) is “bound strongly” and the “binding to A375Pβ6puro” value was “high levels of binding at concentrations as low as 1 nM”. The “binding to A375Ppuro” value in the assay on A375Ppuro was “only low levels of binding”.

For the molecule `CC[C@H](C)[C@H](NC(=O)[C@@H](NC(=O)[C@H](C)NC(=O)[C@H](CC(C)C)NC(=O)[C@H](CC(=O)O)NC(=O)CNC(=O)[C@H](CCCNC(=N)N)NC(=O)[C@H](CCCNC(=N)N)NC(=O)CNC(=O)[C@@H](NC(=O)[C@@H](NC(=O)[C@H](Cc1ccccc1)NC(=O)CN)[C@@H](C)O)[C@@H](C)O)[C@@H](C)O)C(=O)N[C@@H](Cc1cnc[nH]1)C(=O)NCC(=O)N[C@@H](CCSC)C(=O)N[C@@H](CC(N)=O)C(=O)N[C@@H](CCCNC(=N)N)C(=O)N1CCC[C@H]1C(=O)N[C@@H](Cc1ccccc1)C(=O)O` [A20LAP], at αvβ6 [2], the “adhesion of 3T3β6.19 to LAP, % of control cell adhesion” value is recorded as 32±7%. At αvβ6 [1], it took 28.7 ± 11 µM to reach half-maximal inhibition (IC50) and the “effect on VB6 adhesion to LAP” value is “completely blocks cell adhesion”. Also, on rsαvβ6 [4], the “binding of biotinylated peptide to immobilised rsαvβ6” value (“binding of biotinylated peptide” for short) is recorded as “bound more than A20FMDV1”. Moreover, the “binding to A375Pβ6puro” value in the assay with A375Pβ6puro is “bound to both cell lines at 10 μM and 1 μM”. The “binding to A375Ppuro” value in the assay with A375Ppuro was “bound to both cell lines at 10 μM and 1 μM”.

As to “{Biotin-Ahx}-PGRTFHRFGMGAITRTGNDL [B-A20LAP-Ran, reference compound]”, the “binding of biotinylated peptide” value on rsαvβ6 [4] was “did show binding at 10 μM and 1 μM”.

In the case of `CC(C)C[C@H](NC(=O)[C@H](CC(=O)O)NC(=O)CNC(=O)[C@H](CCCNC(=N)N)NC(=O)[C@H](C)NC(=O)[C@H](C)NC(=O)[C@H](C)NC(=O)[C@@H](N)CO)C(=O)N[C@@H](CCC(=O)O)C(=O)N[C@@H](CCC(N)=O)C(=O)N[C@@H](CC(C)C)C(=O)N[C@H](C(=O)N[C@@H](CO)C(=O)N[C@@H](CC(C)C)C(=O)N[C@@H](CC(C)C)C(=O)N[C@@H](CCC(N)=O)C(=O)N[C@@H](CC(N)=O)C(=O)N[C@@H](CC(N)=O)C(=O)N[C@H](C(=O)N[C@@H](CC(N)=O)C(=O)O)C(C)C)[C@@H](C)O` [P-INK] (H-SAAARGDLEQLTSLLQNNVN-OH; N-terminus assumed), on αvβ6 [2], the “inhibition of αvβ6-dependent adhesion / binding affinity to αvβ6” value is reported as “inhibited αvβ6-dependent adhesion”.

With `CC[C@H](C)[C@H](NC(=O)[C@@H](NC(=O)[C@H](C)NC(=O)[C@H](CC(C)C)NC(=O)[C@H](CC(=O)O)NC(=O)CNC(=O)[C@H](CCCNC(=N)N)NC(=O)[C@H](CCCNC(=N)N)NC(=O)CNC(=O)[C@@H](NC(=O)[C@@H](NC(=O)[C@@H](N)Cc1ccccc1)[C@@H](C)O)[C@@H](C)O)[C@@H](C)O)C(=O)O` [DD2] (H-FTTGRRGDLATI-OH; N-terminus and C-terminus assumed), the “effect on VB6 adhesion to LAP” value at αvβ6 [1] is listed as “little effect”. In addition, at rsαvβ6 [3], the midpoint of inhibition, the IC50, lay at 0.0309 µM.

What is called EC50 is the concentration giving half of the maximal effect. A high value points to lower potency in that assay. Consider `CC(C)C[C@@H]1NC(=O)[C@H](CC(=O)O)NC(=O)CNC(=O)[C@H](CCCNC(=N)N)NC(=O)[C@H](CC(C)C)NC(=O)[C@H](CC(N)=O)NC(=O)[C@@H]2CCCN2C(=O)[C@H](C(C)C)NC(=O)[C@H](Cc2ccc(O)cc2)NC(=O)[C@@H](NC(=O)CCCCCNC(=O)CCCC[C@@H]2SC[C@@H]3NC(=O)N[C@@H]32)CSSC[C@@H](C(=O)O)NC(=O)[C@H](CCCCN)NC(=O)[C@H](C)NC(=O)[C@H](C(C)C)NC(=O)[C@H](CCCCN)NC(=O)[C@H](CCC(N)=O)NC(=O)[C@H](C)NC(=O)[C@H](CC(C)C)NC(=O)[C@H](C(C)C)NC(=O)[C@H](CCC(N)=O)NC1=O` [B-DBD2], for which, at rsαvβ6 [4], the concentration giving a half-maximal response (EC50) amounted to 0.0017 µM and the “binding of biotinylated peptide” value is on record as “concentration-dependent binding”. Further, in the assay on A375Pβ6puro, the “binding to A375Pβ6 … of 63G9” value is given as “completely abolished”, the “binding … of control IgG” value was “bound strongly” and the “binding to A375Pβ6puro” value was “high levels of binding at concentrations as low as 1 nM”. Also, the “binding to A375Ppuro” value in the assay on A375Ppuro was “only low levels of binding”.

For “Biotin-εAhx-eykCKLVGALQPDNVLQRCRTK [B-Ran, reference compound]”, the “binding of biotinylated peptide” value on rsαvβ6 [4] is recorded as “did not show any binding”. Moreover, in the assay on A375Pβ6puro, the “binding to A375Pβ6 … of 63G9” value is on record as “did not bind”, the “binding … of control IgG” value was “did not bind” and the “binding to A375Pβ6puro” value was “did not bind”. For the same molecule, the “binding to A375Ppuro” value in the assay with A375Ppuro is “did not bind”.

On to `CC[C@H](C)[C@H](NC(=O)[C@@H](NC(=O)[C@H](C)NC(=O)[C@H](CC(C)C)NC(=O)[C@H](CC(=O)O)NC(=O)CNC(=O)[C@H](CCCNC(=N)N)NC(=O)[C@@H](N)CCCNC(=N)N)[C@@H](C)O)C(=O)N[C@@H](Cc1c[nH]cn1)C(=O)O` [DD1], for which, on αvβ6 [2], the 50% inhibitory concentration (IC50) was found to be 216 µM and the “adhesion of 3T3β6.19 to LAP, % of control cell adhesion” value was found to be 57±4%.

For `CC(C)C[C@@H]1NC(=O)[C@H](CC(=O)O)NC(=O)CNC(=O)[C@H](CCCNC(=N)N)NC(=O)[C@H](CC(C)C)NC(=O)[C@H](CC(N)=O)NC(=O)[C@@H]2CCCN2C(=O)[C@@H](NC(=O)[C@@H](CCCCN)NC(=O)[C@@H](Cc2ccc(O)cc2)NC(=O)[C@@H](CCC(=O)O)NC(=O)CCCCCNC(=O)CCCC[C@@H]2SC[C@@H]3NC(=O)N[C@@H]32)CSSC[C@@H](C(=O)N[C@@H](CCCNC(=N)N)C(=O)N[C@H](C(=O)N[C@@H](CCCCN)C(=O)O)[C@@H](C)O)NC(=O)[C@H](C(C)C)NC(=O)[C@H](CCCCN)NC(=O)[C@H](CCC(N)=O)NC(=O)[C@H](C)NC(=O)[C@H](CC(C)C)NC(=O)[C@H](C(C)C)NC(=O)[C@H](CCC(N)=O)NC1=O` [B-DBD1], on rsαvβ6 [4], the EC50 was determined as 0.00069 µM and the “binding of biotinylated peptide” value is “concentration-dependent binding”. For the same molecule, in the assay with A375Pβ6puro, the “binding to A375Pβ6 … of 63G9” value is given as “greatly reduced”, the “binding … of control IgG” value is given as “bound strongly” and the “binding to A375Pβ6puro” value was “high levels of binding at concentrations as low as 1 nM”. Besides, the “binding to A375Ppuro” value in the assay with A375Ppuro is given as “only low levels of binding”.

Take SAAARGDLEQLTSLLQNNVNV [P18-INK]: the “inhibition of αvβ6-dependent adhesion / binding affinity to αvβ6” value with αvβ6 [2] is recorded as “significantly greater than that of DD19”.

These data come from US8927501B2, “αvβ6 peptide ligands and their uses” (priority 2005, dated 2015).
